pIC50: −log10 of the molar value.

A word on the half-life: it is the time in which the quantity being followed falls by half. A lower half-life goes with rapid decline. By pIC50 is commonly meant −log10 of the IC50, conventionally taken in molar units. A low value points to a high IC50.

The nature of one data set: in vitro. Conditions: mouse, hepatocytes.
The next data set deals with MV4-11. Description: CellTiter-Blue cell viability, MV4-11. Format: cell-based. Conditions: for pIC50: Homo sapiens, MV4-11, AML cell line, 72 hours. How it is done: (§1) The anti-cancer efficacy of exemplary compounds of the application were assessed in vitro against different cancer cell lines. Cell viability was examined following treatment at various concentrations of inhibitor (0.097656-50 μM) using a CellTiter-Blue® cell viability assay. 1×10^4 cells/well were plated in 96-well assay plates in culture medium. All cells were grown in DMEM, IMDM and RPMI-1640 supplemented with 10% fetal bovine serum (FBS). In some instances, FBS was removed for periods ranging from 16-24 hours, and re-introduced with test compound addition. After 24 hrs, test compounds and vehicle controls were added to appropriate wells such that the final volume was 100 μl in each well. The cells were cultured for the desired test exposure period (72 hours) at 37° C. and 5% CO2. The assay plates were removed from 3° C. incubator and 20 μl/well of CellTiter-Blue® Reagent was added. The plates were incubated using standard cell culture conditions for 1-4 hours. Afterwards, the plates were shaken for 10 seconds and florescence was recorded at 560/590 nm using a Cytation 3 spectrophotometer. IC50 values were determined using non-linear regression analysis with GraphPad Prism 6.0 (GraphPad Software Inc.).
(Resazurin is reduced to fluorescent resorufin, in cell work by metabolically active cells.)

The test system of another data set is MOLM13. Description: CellTiter-Blue cell viability, MOLM13. Format: cell-based. Conditions: Homo sapiens, MOLM-13; AML cell line, 72 hours. How it is done: as §1
Data set [1] relates to healthy human lung cells (MRC9). Nature of the data set: CellTiter-Blue cell viability, MRC9. Format: cell-based. As to conditions: non-cancerous, 72 hours. How it is done:
as §1

In data set [2] the test system is healthy keratinocyte cells (HaCaT). Description: CellTiter-Blue cell viability, HaCaT. Format: cell-based. Conditions: Homo sapiens, non-cancerous, 72 hours. How it is done:
as §1

Data set [3] deals with primary human fibroblast cells (PHF). Description: CellTiter-Blue cell viability, PHF. The format is cell-based. As to conditions: non-cancerous, 72 hours. How it is done: as §1
The subject of the next data set is D425. Nature of the data set: Cell viability, medulloblastoma D425. The format is cell-based. Conditions: medulloblastoma cell line. How it is done:
as §1, with “Inc.). […]” for “Inc.).”

In a further data set the test system is D458. Nature of the data set: Cell viability, medulloblastoma D458. The format is cell-based. As to conditions: medulloblastoma cell line. How it is done: as §1, with “Inc.). […]” for “Inc.).”
A further data set relates to ATCC3034. Nature of the data set: Cell viability, medulloblastoma ATCC3034. Format: cell-based. As to conditions: medulloblastoma cell line. How it is done:
as §1, with “Inc.). […]” for “Inc.).”

A short description of data set [4]: Intrinsic clearance in mouse hepatocytes.
Description: (§2) A stock of 100 μM test compound was prepared by diluting the 10 mM I-1 test compound in DMSO with a solution of 50% acetonitrile and 50% water. In a 96-well non-coated plate, 198 μL of hepatocytes was pipetted, and the plate was placed in the incubator on an orbital shaker to allow the hepatocytes to warm for 10 minutes. To this solution 2 μL of the 100 μM I-1 was added to start the reaction, and the plate was placed on an orbital shaker. […] The reaction solution was then vortexed for 10 minutes and centrifuged at 4,000 rpm for 30 minutes at 4° C. Next, 400 μL of the supernatant was transferred to one new 96-well plate, centrifuged at 4,000 rpm for 30 minutes at 4° C., and 100 μL of the supernatant was transferred to a new 96-well plate ensuring the pellet was not disturbed. 100 μL of ultrapure water was added to all samples for analysis by LC-MS/MS.
Injection volume was 10 μL.
Data set [5] concerns UFMylation pathway (UBA5, UFC1, UFM1, c-Myc) in MV4-11 cells. Nature of the data set: Western blot of UFMylation pathway in MV4-11 cells. Format: cell-based. As to conditions: 8 hours, 0 to 1 μM. On the procedure: Post-treatment (8 hours) of MV4-11 cells with I-1 test compound at 1, 0.5, 0.25, 0.1 and 0 μM concentrations, all cells were lysed with radioimmunoprecipitation assay (RIPA) buffer: 20 mM Tris pH 7.4, 150 mM NaCl, 0.5% deoxycholate, 1% Triton X-100, 0.1% sodium dodecyl sulfate (SDS). Total protein was measured using BCA assay (Sigma). In each assay, clarified protein were resolved on a 4%-15% polyacrylamideSDS gel and transferred to a PVDF membrane (Bio-Rad). The membranes were blocked with 5% solution of skim milk powder in TBST and incubated for at least 1 hour followed by an overnight incubation at 4° C. in primary antibody (1:1000 dilution). Blots were probed with antibodies against UBA5, UFM1, UFC1, c-Myc, and beta-actin was used as a loading control (Santa Cruz Biotechnology catalog # sc-835). The PVDF membrane then washed with TBST (3 times for 5 minutes). A horseradish peroxides (HRP)-conjugated goat anti-mouse IgG secondary antibodies (Cell signaling Catalog #7076S) was applied to the membrane (1:5000 dilution) and incubated for 1 hour at room temperature. The blots were then rinsed again 3 times in TBST for 10 minutes. Bands were visualized using clarity western ECL substrate luminal/enhancer solution and peroxide solution 1:1 ratio for HRP secondary antibody, according to the manufacturer's instructions (Bio-Rad) and analyzed using Image lab software (Bio-Rad).
A general note: In western blotting, separated proteins are transferred to a membrane and probed.

Description for in vitro: as §2
Injection volume was 10 μL.

On to `COc1ccc(NS(=O)(=O)c2c(F)c(F)c(F)c(F)c2F)cc1F` [Batabulin], for which the half-life at 1 μM in “in vitro” was 0.298 h.
On to `O=S(=O)(c1ccc(F)cc1)N(Cc1ccc(F)cc1)C1CC1` [Comparative Example 3, N-cyclopropyl-4-fluoro-N-(4-fluorobenzyl)benzenesulfonamide, reference compound], for which, in the data set with MV4-11 (AML cells (MV4-11 and MOLM13)), the “activity in AML cells” value is “inactive”. The pIC50 (in the data set on MV4-11; in the data set with MOLM13; in [1]; in data set [2]) was < 4.60 each time.
In the case of `O=S(=O)(c1c(F)c(F)c(F)c(F)c1F)N(Cc1ccc(Cl)cc1)C1CC1` [Compound I-7, N-(4-chlorobenzyl)-N-cyclopropyl-2,3,4,5,6-pentafluorobenzenesulfonamide], the pIC50 with MV4-11 was 5.86; with MOLM13 it was 5.46; in data set [1] it was 4.79; in data set [3], 5.57; in the data set on D425 it was 5.85; in the data set on D458, 5.70. The compound further gave a pIC50 with ATCC3034 of 6.52. This compound also yielded a half-life at 1 μM in [4] of 1.92 h.
With `COc1ccc(CN(C2CC2)S(=O)(=O)c2c(F)c(F)c(F)c(F)c2F)cc1` [Compound I-8, N-cyclopropyl-2,3,4,5,6-pentafluoro-N-(4-methoxybenzyl)benzenesulfonamide], the pIC50 with MV4-11 was 6.03; in the data set with MOLM13, 6.14; in data set [2] it was 4.76.
Turning to `O=S(=O)(c1c(F)c(F)c(F)c(F)c1F)N(Cc1c(F)cc(F)cc1F)C1CC1` [Compound I-36, N-cyclopropyl-2,3,4,5,6-pentafluoro-N-(2,4,6-trifluorobenzyl)benzenesulfonamide], the pIC50 in the data set on MV4-11 was 5.82; in the data set with MOLM13 it was 5.17; in data set [1], 4.59; in [3], 5.09.
Take `O=S(=O)(c1c(F)c(F)c(F)c(F)c1F)N(Cc1ccccc1F)C1CC1` [Compound I-40, N-cyclopropyl-2,3,4,5,6-pentafluoro-N-(2-fluorobenzyl)benzenesulfonamide]: the pIC50 in the data set with MV4-11 is 6.48; in the data set with MOLM13, 5.49. The “reduction of UBA5 levels and UFC1-UFM1 conjugate levels” value in data set [5] is given as “comparable activity to I-1”.
Turning to `O=S(=O)(c1c(F)c(F)c(F)c(F)c1F)N(Cc1c(F)cc(F)cc1F)C1CCC1` [Compound I-47, N-cyclobutyl-2,3,4,5,6-pentafluoro-N-(2,4,6-trifluorobenzyl)benzenesulfonamide], the pIC50 was 5.94 with MV4-11, 5.08 in the data set with MOLM13, 4.80 in data set [1] and 5.43 in data set [3].
The matching figures for `CC(C)N(Cc1ccccc1F)S(=O)(=O)c1c(F)c(F)c(F)c(F)c1F` [Compound I-48]: 5.92, 5.39, 4.82 and 5.52.
Taken in the same sequence, the figures for `CC(C)N(Cc1ccc(F)cc1F)S(=O)(=O)c1c(F)c(F)c(F)c(F)c1F` [Compound I-49, N-(2,4-difluorobenzyl)-2,3,4,5,6-pentafluoro-N-isopropylbenzenesulfonamide] were 6.00, 5.38, 4.78 and 5.35.
For the compound `O=S(=O)(c1c(F)c(F)c(F)c(F)c1F)N(Cc1ccc(F)cc1)C1CCC1` [Compound I-55, N-cyclobutyl-2,3,4,5,6-pentafluoro-N-(4-fluorobenzyl)benzenesulfonamide], the values for the pIC50 (in the data set with MV4-11; in the data set on MOLM13; in data set [3]) were 6.37, 6.14 and 5.60, respectively. In addition, the “reduction of UBA5 levels and UFC1-UFM1 conjugate levels” value in data set [5] is “comparable activity to I-1”.

The values are drawn from patent US20200277268A1, “PENTAFLUOROPHENYL SULFONAMIDE COMPOUNDS, COMPOSITIONS AND USES THEREOF” (DALRIADA THERAPEUTICS INC., priority 2017, published 2020).
